The structures appear in SMILES notation.

The test system of data set [1] is NALM6-luc tumors. The experiment in a line: NALM6-luc tumor growth with daily RAD001 dosing. The data set is classed as in vivo, NSG mice. The note with it: daily oral dosing of RAD001 alone, 0.3, 1, 3 and 10 mg/kg. The procedure:
NALM6-luc cells: The NALM6 human acute lymphoblastic leukemia (ALL) cell line was developed from the peripheral blood of a patient with relapsed ALL. The cells were then tagged with firefly luciferase. These suspension cells grow in RPMI supplemented with 10% heat inactivated fetal bovine serum.
Mice: 6 week old NSG (NOD.Cg-PrkdcscidIl2rgtmlWj1/SzJ) mice were received from the Jackson Laboratory (stock number 005557).
(§1) Tumor implantation: NALM6-luc cells were grown and expanded in vitro in RPMI supplemented with 10% heat inactivated fetal bovine serum. The cells were then transferred to a 15 ml conical tube and washed twice with cold sterile PBS. NALM6-luc cells were then counted and resuspended at a concentration of 10×10^6 cells per milliliter of PBS. The cells were placed on ice and immediately (within one hour) implanted in the mice. NALM6-luc cells were injected intravenously via the tail vein in a 100 μl volume, for a total of 1×10^6 cells per mouse.
(§2) RAD001 dosing: A concentrated micro-emulsion of 50 mg equal to 1 mg RAD001 was formulated and then resuspended in D5W (dextrose 5% in water) at the time of dosing. Mice were orally dosed daily (via oral gavage) with 200 μl of the desired doses of RAD001.

Data set [2] relates to huCAR19 CAR T cells. The experiment in a line: in vivo proliferation of humanized CD19 CART cells with RAD001 dosing. Further details: species or system NSG mice. The protocol: as §1
CAR T cell dosing: Mice were administered 5×10^6 CAR T cells 7 days after tumor implantation. Cells were partially thawed in a 37 degree Celsius water bath and then completely thawed by the addition of 1 ml of cold sterile PBS to the tube containing the cells. The thawed cells were transferred to a 15 ml falcon tube and adjusted to a final volume of 10 mls with PBS. The cells were washed twice at 1000 rpm for 10 minutes each time and then counted on a hemocytometer. T cells were then resuspended at a concentration of 50×10^6 CAR T cells per ml of cold PBS and kept on ice until the mice were dosed. The mice were injected intravenously via the tail vein with 100 μl of the CAR T cells for a dose of 5×10^6 CAR T cells per mouse. Eight mice per group were treated either with 100 μl of PBS alone (PBS), or humanized CD19 CAR T cells.
as §2
Based on these doses, huCAR19 CAR T cells were dosed with and without RAD001 to determine the proliferative ability of these cells. The highest dose used was 3 mg/kg based on the levels of RAD001 in the blood 24 hours after dosing. As the concentration of RAD001 was above 10 nM 24 hours after the final dose of RAD001, several lower doses of RAD001 were used in the in vivo study with CAR T cells. The CAR T cells were dosed IV one day prior to the start of the daily oral RAD001 dosing. Mice were monitored via FACS for T cell expansion.

Data set [3] relates to huCART19 cells co-cultured with NALM6 (Nalm-6). In words: CART proliferation in 4 day co-culture assay with RAD001. The note with it: for proliferation of huCART19 cells: 4 day co-culture. Format: cell-based, human. The procedure:
To evaluate the functionality of CARTs, the T cells are thawed and counted, and viability is assessed by Cellometer. The number of CAR-positive cells in each culture is normalized using non-transduced T cells (UTD). The impact of RAD001 on CARTs was tested in titrations with RAD001, starting at 50 nM. The target cell line used in all co-culture experiments is NALM6 (Nalm-6), a human pre-B cell acute lymphoblastic leukemia (ALL) cell line expressing CD19 and transduced to express luciferase.
For measuring the proliferation of CARTs, T cells are cultured with target cells at a ratio of 1:1. The assay is run for 4 days, when cells are stained for CD3, CD4, CD8 and CAR expression. The number of T cells is assessed by flow cytometry using counting beads as reference.

A short description of data set [4]: pharmacokinetic analysis of RAD001 in blood. Format: in vivo, NSG mice. The protocol:
as §2
PK analysis: Mice were dosed daily with RAD001 starting 7 days post tumor implantation. Dosing groups were as follows: 0.3 mg/kg, 1 mg/kg, 3 mg/kg, and 10 mg/kg. Mice were bled on days 0 and 14 following the first and last dose of RAD001, at the following time points for PK analysis: 15 minutes, 30 minutes, 1 hour, 2 hours, 4 hours, 8 hours, 12 hours, and 24 hours.

Take `CO[C@H]1C[C@@H]2CC[C@@H](C)[C@@](O)(O2)C(=O)C(=O)N2CCCC[C@H]2C(=O)O[C@H]([C@H](C)C[C@@H]2CC[C@@H](OCCO)[C@H](OC)C2)CC(=O)[C@H](C)/C=C(\C)[C@@H](O)[C@@H](OC)C(=O)[C@H](C)C[C@H](C)/C=C/C=C/C=C/1C` [RAD001, (1R,9S,12S,15R,16E,18R,19R,21R,23S,24E,26E,28E,30S,32S,35R)-1,18-dihydroxy-12-{(1R)-2-[(1S ,3R,4R)-4-(2-hydroxyethoxy)-3-methoxycyclohexyl]-1-methylethyl}-19,30-dimethoxy-15,17,21,23,29,35-hexamethyl-11,36-dioxa-4-aza-tricyclo[30.3.1.04,9]hexatriaconta-16,24,26,28-tetraene-2,3,10,14,20-pentaone]: the “growth of NALM6-luc tumors” value in data set [1] is reported as “did not have an impact”. Moreover, in data set [2] (RAD001 0.003 mg/kg daily, above the normal level of huCAR19 proliferation), the “CAR T cell proliferation in vivo” value was “enhancement”. Also, the “proliferation of CD8+ CAR T cells in vivo” value in data set [2] (lowest doses of RAD001) was “enhanced proliferation can be seen at early time points”. Besides, the “proliferation of the CAR T cells in vivo” value in data set [2] (lowest doses of RAD001, daily oral, huCAR19 dosed IV) is “enhanced proliferation”. In addition, the “proliferation of CD4+ CAR T cells in vivo” value in data set [2] (lowest doses of RAD001, compared with CD8+ CAR T cells) was “more evident and prolonged”. The “proliferation of huCART19 cells” value in data set [3] (0.0032 nM RAD001) and in data set [3] (0.016 nM RAD001) was “higher than observed without the addition of RAD001” throughout. In data set [3] (low doses of RAD001, 4 days of co-culture), the “proliferation of CAR-expressing, transduced T cells” value was “enhanced”. Also, in data set [4] (NSG, mouse, blood, lowest dose tested (0.3 mg/kg), oral, read-out: RAD001 concentration in the blood 24 hours after dosing), the concentration at 24 h was over 10 nM. In data set [4] (after the final dose of RAD001), the “concentration of RAD001 24 hours after the final dose” value is listed as “above 10 nM”. Also, the “stability in the blood of tumor bearing mice” value in data set [4] (daily oral dosing) is reported as “fairly stable”. The “RAD001 concentration in the blood 24 hours after dosing” value in data set [4] (day 14, lowest dose tested (0.3 mg/kg), oral) is on record as “above 10 nm”.

The values are drawn from patent US20170209492A1, “SUBSET-OPTIMIZED CHIMERIC ANTIGEN RECEPTOR-CONTAINING T-CELLS” (NOVARTIS AG, priority 2014, published 2017).
